What all share (format): cell-based
For one assay, the system named is A549 cells. The conditions noted are these: for Letal Dose (μM) LD25: Table II, 72 h, MTT, 25% cell death. The method, then: (§1) H1650, H1975, H1299, A549 cell lines were cultured in DMEM medium supplemented with 10% of FCS. HBEC cell lines (wt and Ras V12) were cultured in KSFM supplemented with growth factors. All the cell lines come from human non small cell lung cancer (NSCLC).
(§2) The cytotoxicity of penetrating peptides or chemotherapeutic agents, alone or in combination, was evaluated by the (3-(4,5-dimethylthiazol-2-yl)-2,5-diphenyltetrazolium bromide) tetrazolium (MTT) reduction assay. The cells were seeded in 96-well plates (100 μL/well) at a cell density defined from growth curves. After 24 hours of incubation, cells were treated with the peptides for 72 hours. The wells were rinsed two times with RPMI. After washing, 10 μl of stock MTT solution (5 mg/ml; MTT (SIGMA #M-2128) in PBS Dubecco's 1× without Ca^2+ and Mg^2+) was added to a final volume of 100 μl of culture medium. Cell lines were incubated for additional 4 hours at 37° C. under humid atmosphere with 5% (v/v) CO2. The formation of blue formazan crystals was detected under a microscope. An equal volume of 10% SDS (MERCK, #926.238) in 10 mM HCl was added to each well and the plate was placed in the incubator overnight to dissolve formazan crystals. The plates were mixed to ensure complete solubilisation of formazan crystals and absorbance was measured at 570 nm and 620 nm. The percentage of viable cells was estimated using the formula: % cell viability=ΔOD(570-620) treated/ΔOD(570-620)control×100.
(§3) Cell-penetrating peptides (CPPs) comprising the binding site of TEAD to TAZ or YAP or of YAP to TEAD (TAZ, TEAD and YAP peptides, respectively) were chemically synthesized. The effect of the peptides on cell viability was assayed on several human non small cell lung cancer (NSCLC) cell lines. All the lung cancer cell lines were treated for 72 h with different peptide concentrations. Cytotoxicity was analysed as described in Materials and Methods.

The test system of another assay is H1299 cells. Particulars: for Letal Dose (μM) LD25: Table II, 72 h, MTT, 25% cell death. As to the method: as §1, §2, §3
Another assay concerns H1650 cells. The conditions noted are these: for Letal Dose (μM) LD25: Table II, 72 h, MTT, 25% cell death. The method, then:
as §1, §2, §3

A further assay deals with H1975 cells. Particulars: for Letal Dose (μM) LD25: Table II, 72 h, MTT, 25% cell death. As to the method: as §1, §2, §3
In the next assay the test system is HBEC RasV12 cells. The conditions noted are these: for Letal Dose (μM) LD25: Table II, 72 h, MTT, 25% cell death. The method, then:
as §1, §2, §3

The next assay relates to HBEC wt cells. Particulars: for Letal Dose (μM) LD25: Table II, HBEC WT, 72 h, MTT, 25% cell death; for Cell viability (%): HBEC wt. The method, then:
as §1, §2, §3

For the next assay, the system named is ES2 cells. The assay can be described thus: MTT cytotoxicity assay, ES2. Particulars: for Cell viability (%): Table IX; for Letal Dose (μM) LD25: Table VIII, 72 h, MTT, 25% cell death. The method, then:
as §2
(§4) ES2, IGROV-1, OVCAR8 and SKOV3 cell lines come from human ovarian cancer.
(§5) Cell-penetrating peptides (CPPs) comprising the binding site of TEAD to TAZ or YAP or of YAP to TEAD (TAZ, TEAD and YAP peptides, respectively) were chemically synthesized. The effect of the peptides on cell viability was assayed on several human ovarian cancer cell lines. All the ovarian cancer cell lines were treated for 72 h with different peptide concentrations. Cytotoxicity was analysed as described in example 2.

A further assay has as its system SKOV3 cells. The experiment in a line: MTT cytotoxicity assay, SKOV3. The conditions noted are these: for Cell viability (%): Table IX; for Letal Dose (μM) LD25: Table VIII, 72 h, MTT, 25% cell death. As to the method: as §2, §4, §5
For orientation: Formazan colour is commonly taken as a measure of viable cells.

In a further assay the test system is IGROV-1 cells. The assay can be described thus: MTT cytotoxicity assay, IGROV. The conditions noted are these: for Cell viability (%): Table IX; for Letal Dose (μM) LD25: Table VIII, 72 h, MTT, 25% cell death. As to the method:
as §2, §4, §5

The test system of the next assay is OVCAR8 cells. The assay can be described thus: MTT cytotoxicity assay, OVCAR8. Particulars: for Cell viability (%): Table IX; for Letal Dose (μM) LD25: Table VIII, 72 h, MTT, 25% cell death. As to the method: as §2, §4, §5
The mark [1] stands for this setting: Table III, drug alone vs its vehicle (HPCD10%, NaCl or Glucose 5%).
Setting [2] is: Table VI, peptide alone vs HPCD 10%.
Where [3] appears, read: Table IV, drug alone vs its vehicle (Glucose 5% or NaCl).
Setting [4] is: Table V, drug alone vs its vehicle (Glucose 5% or NaCl).

Where two headings read alike, the source gives them in different places.

Regarding “VKKKKIKAEIKIPPHAFFVLKFWADLNWGPSGEEAGAG [TAZ]”, the “Letal Dose (μM) LD25” value with A549 cells was 6 µM; with H1299 cells it was 5 µM; in the assay with H1650 cells it was over 100 µM; with H1975 cells it was 3 µM; in the assay on HBEC RasV12 cells, 2.5 µM; in the assay with HBEC wt cells it was 2.5 µM. The “Letal Dose (μM) LD25” value turned out to be 6 µM in the assay on ES2 cells, 60 µM in the assay with SKOV3 cells, 5 µM in the assay on IGROV-1 cells and 9 µM in the assay on OVCAR8 cells. Also, the “Cell viability (%)” value in the assay with A549 cells (setting [1]) is −38%; in the assay with A549 cells (setting [2]), −7.835%; in the assay with H1299 cells (setting [1]) it was −24.71%; in the assay on H1299 cells (setting [2]) it was −8.413%; with H1650 cells (setting [1]) it was −30.68%; with H1650 cells (setting [2]) it was −2.439%. The “Cell viability (%)” value with H1975 cells (setting [1]) is recorded as −49.35%; in the assay with H1975 cells (setting [2]) it was −13.21%; in the assay with HBEC RasV12 cells (setting [1]) it was −89.9%; in the assay with HBEC RasV12 cells (setting [2]) it was −53.02%; in the assay on HBEC wt cells (setting [1]) it was −58.16%; in the assay on HBEC wt cells (setting [2]), −66.15%. Further, the “Cell viability (%)” value was −46.33% with ES2 cells (TAZ 10 μM vs HPCD 10%); −57.44% in the assay with ES2 cells (TAZ 25 μM vs HPCD 10%); −26.64% in the assay with SKOV3 cells (TAZ 10 μM vs HPCD 10%); −36.09% in the assay on SKOV3 cells (TAZ 25 μM vs HPCD 10%); −39.39% in the assay with IGROV-1 cells (TAZ 10 μM vs HPCD 10%); −34% in the assay with IGROV-1 cells (TAZ 25 μM vs HPCD 10%). Moreover, the “Cell viability (%)” value in the assay on OVCAR8 cells (TAZ 10 μM vs HPCD 10%) is −18.7%; in the assay on OVCAR8 cells (TAZ 25 μM vs HPCD 10%), −24.69%.

Consider `N.N.O=C([O-])C1(C(=O)[O-])CCC1.[Pt+2]` [Carboplatin], for which the “Letal Dose (μM) LD25” value was 10 µM with ES2 cells, 18 µM in the assay with SKOV3 cells, 30 µM with IGROV-1 cells and 30 µM in the assay with OVCAR8 cells.

`C#Cc1cccc(Nc2ncnc3cc(OCCOC)c(OCCOC)cc23)c1` [Tarceva, Erlotinib]: the “Letal Dose (μM) LD25” value is 0 µM in the assay on A549 cells; over 100 µM with H1299 cells; 0.4 µM in the assay on H1650 cells; 3 µM with H1975 cells; 0.001 µM in the assay on HBEC RasV12 cells; 0.04 µM with HBEC wt cells. For the same molecule, the “Cell viability (%)” value was −52.89% with A549 cells (setting [1]); −60.75% with A549 cells (setting [3]); −67.3% with A549 cells (setting [4]); −39.83% with H1299 cells (setting [1]); −60.68% with H1299 cells (setting [3]); −61.14% with H1299 cells (setting [4]). Further, the “Cell viability (%)” value in the assay with H1650 cells (setting [1]) was −47.11%; in the assay with H1650 cells (setting [3]), −38.72%; with H1650 cells (setting [4]), −53.13%; in the assay on H1975 cells (setting [1]), −49.68%; with H1975 cells (setting [3]), −77.63%; in the assay on H1975 cells (setting [4]), −56.6%. The “Cell viability (%)” value in the assay on HBEC RasV12 cells (setting [1]) is on record as −4.596%; in the assay with HBEC RasV12 cells (setting [3]), −25.67%; in the assay on HBEC RasV12 cells (setting [4]) it was 0.2682%; with HBEC wt cells (setting [1]), −15.63%; with HBEC wt cells (setting [3]), −55.15%; in the assay on HBEC wt cells (setting [4]) it was −37.28%.

`CC(=O)O[C@@]12CO[C@@H]1C[C@H](O)[C@@]1(C)C(=O)[C@H](O)C3=C(C)[C@@H](OC(=O)[C@H](O)[C@@H](NC(=O)OC(C)(C)C)c4ccccc4)C[C@@](O)([C@@H](OC(=O)c4ccccc4)[C@H]21)C3(C)C` [Docetaxel]: the “Letal Dose (μM) LD25” value with A549 cells was 0.0002 µM; in the assay with H1299 cells, 0.007 µM; with H1650 cells, 0.0001 µM; with H1975 cells, 0.0008 µM; in the assay with HBEC RasV12 cells, 0.0002 µM; in the assay with HBEC wt cells, 0.0002 µM. Moreover, the “Cell viability (%)” value in the assay on A549 cells (setting [1]) is 11.73%; in the assay with A549 cells (setting [3]) it was −49.02%; in the assay on A549 cells (setting [4]), −39.31%; in the assay on H1299 cells (setting [1]) it was −10.53%; with H1299 cells (setting [3]), −72.38%; in the assay with H1299 cells (setting [4]), −89.07%. For the same molecule, the “Cell viability (%)” value was 23.41% in the assay with H1650 cells (setting [1]); −41.32% in the assay on H1650 cells (setting [3]); 0.1681% in the assay on H1650 cells (setting [4]); 5.931% in the assay with H1975 cells (setting [1]); −92.17% in the assay with H1975 cells (setting [3]); −79.23% in the assay with H1975 cells (setting [4]). The “Cell viability (%)” value with HBEC RasV12 cells (setting [1]) was 15.19%; with HBEC RasV12 cells (setting [3]), −88.64%; in the assay with HBEC RasV12 cells (setting [4]), −95.93%; in the assay on HBEC wt cells (setting [1]) it was 25.93%; with HBEC wt cells (setting [3]), −54.02%; in the assay with HBEC wt cells (setting [4]), −2.578%.

As for `CC(=O)O[C@H]1C(=O)[C@@]2(C)[C@H]([C@H](OC(=O)c3ccccc3)[C@]3(O)C[C@H](OC(=O)[C@H](O)[C@@H](NC(=O)c4ccccc4)c4ccccc4)C(C)=C1C3(C)C)[C@]1(OC(C)=O)CO[C@@H]1C[C@@H]2O` [Paclitaxel], the “Letal Dose (μM) LD25” value is 0.004 µM in the assay with ES2 cells, 0.005 µM with SKOV3 cells, 0.002 µM in the assay with IGROV-1 cells and 0.003 µM with OVCAR8 cells.

Turning to `N.N.[Cl][Pt][Cl]` [Cisplatin], the “Letal Dose (μM) LD25” value with A549 cells was found to be 3 µM; with H1299 cells, 30 µM; in the assay on H1650 cells, 2 µM; in the assay with H1975 cells, 30 µM; in the assay with HBEC RasV12 cells it was 1 µM; in the assay on HBEC wt cells, 2 µM. Moreover, the “Cell viability (%)” value in the assay on A549 cells (setting [1]) is reported as −37.43%; in the assay with A549 cells (setting [3]), −60.45%; in the assay on A549 cells (setting [4]) it was −57.64%; in the assay on H1299 cells (setting [1]), −57.12%; with H1299 cells (setting [3]) it was −73.62%; with H1299 cells (setting [4]) it was −95.42%. In addition, the “Cell viability (%)” value with H1650 cells (setting [1]) is reported as −55.41%; in the assay with H1650 cells (setting [3]) it was −77.26%; with H1650 cells (setting [4]), −83.01%; in the assay with H1975 cells (setting [1]), −76.57%; with H1975 cells (setting [3]), −85.91%; in the assay with H1975 cells (setting [4]), −97.93%. Moreover, the “Cell viability (%)” value in the assay with HBEC RasV12 cells (setting [1]) was −44.42%; with HBEC RasV12 cells (setting [3]) it was −55.51%; with HBEC RasV12 cells (setting [4]), −89.58%; in the assay on HBEC wt cells (setting [1]), −21.45%; with HBEC wt cells (setting [3]) it was −77.04%; in the assay on HBEC wt cells (setting [4]), −77.96%.
